What was measured:
[1] = system: amniotic fluid-derived cell line; assay: Two sequential high dose trichostatin A treatments (24 h each), gene expression by RT-PCR (Example 8); format: cell-based, human; details: for Gata1 gene expression / HNF-3 beta gene expression / Insulin gene expression / Pdx-1 gene expression / sox17 gene expression: 1.25 μM 0-24 h + 96-120 h
Procedure: (§1) Several cell lines obtained from different amniotic fluid specimens (see Example 14) and pancreas donors (see Example 13) were tested with similar results. Two lines at similar passage number but derived from different amniotic fluid specimens are shown in Table VIII-A and Table VIII-B for this example. One of these cell lines was also used in examples 2 and 4 above. In addition, this example also contains comparison data in Table VIII-C and Table VIII-D for a single pancreatic-derived stromal line grown to early and late passage number.
(§2) Amniotic fluid derived cells or pancreatic-derived stromal cells were seeded into 24-well tissue culture plates at a density of 5000/cm^2 and cultured in AMNIOMAX (Invitrogen) or DMEM with 10% FBS respectively under standard cell culture conditions until confluent. After the cells reached confluency, amniotic fluid derived cells were treated at time 0 hours with a dose of 1.25 μM trichostatin A, and pancreatic-derived stromal cells were treated with a dose of 5.0 μM trichostatin A solubilized in DMSO and medium. At time 24 hours, cell cultures underwent a complete medium change to remove all traces of trichostatin A. At time 96 hours, cell cultures were re-fed with fresh medium and received a second dose of trichostatin A at the same concentration as used previously. At time 120 hours, cell cultures again underwent a complete medium change and were cultured for an additional 24 hours or […] total incubation time.
(§3) Samples were taken daily for RT-PCR at the times indicated in Table VIII-A to D. The culture media was removed, and samples were rinsed in PBS then collected in RLT with β-mercaptoethanol (Qiagen). RNA was purified using the RNeasy Mini Kit (Qiagen) and RNA quantity and quality were determined using a spectrophotometer. cDNA was made using the iScript cDNA synthesis kit (BioRad).
(§4) Samples of 20 ng cDNA were used in each reaction to determine the expression levels of the following genes in amniotic fluid-derived cells: Gata1, HNF-3 beta, Pdx-1, insulin, and Sox17. Similarly, samples of 20 ng cDNA were used in each reaction to determine the expression level of the following genes in pancreatic-derived cells: glucagon, HNF-3 beta, insulin and Pdx-1. Real-Time PCR was performed on the Applied Biosystems 7500, and data was analyzed using the accompanying software according to the methods described in Example 15.
(§5) Real-time PCR amplifcation and quantitative analysis. Unless otherwise stated, all reagents were purchased from Applied Biosystems. Real-time PCR reactions were performed using the ABI PRISM™ 7500 Sequence Detection System. TAQMAN™ FAST UNIVERSAL PCR MASTER MIX™ (ABI, CA) was used with 20 ng of reverse transcribed RNA in a total reaction volume of 20 μl. Each cDNA sample was run in duplicate to allow correction of pipetting errors. Primers and FAM-labeled TAQMAN™ probes were used at concentrations of 200 nM. The level of expression for each target gene was normalized using the pre-developed Applied Biosystem's human glyceraldehyde-3-phosphate dehydrogenase (GAPDH) endogenous control kit. Primers and probes were designed using either ABI PRISM PRIMER EXPRESS™ software or a pre-developed ABI gene analysis kit. For each gene, either one of the primers or the probe were designed to be exon-boundary spanning. This eliminated the possibility of the primers/probe binding to any genomic DNA present. The primer and probe sets are listed as follows: Pdx-1 (Hs00426216), Insulin (Hs00355773), glucagon (Hs00174967), and FoxA2 (HNF 3-beta) (Hs00232764). The remaining primers were designed using the PRIMERS program (ABI, CA). After an initial 95° C. incubation for 20 sec, samples were cycled 40 times in two stages: a denaturation step at 95° C. for 3 sec, followed by an annealing/extension step at 60° C. for 30 sec. […]

[2] = system: early passage (P5) pancreatic-derived stromal cell line; assay: as above; format: cell-based, human; details: for HNF-3 beta gene expression / Insulin gene expression / Pdx-1 gene expression / glucagon gene expression: 5 μM 0-24 h + 96-120 h
Procedure: as §1, §2, §3, §4, §5

[3] = 5.0 μM, following first treatment

CC(/C=C/C(=O)NO)=C\[C@@H](C)C(=O)c1ccc(N(C)C)cc1 [trichostatin A]
Gata1 gene expression ([1]; 24 hrs): + (detectable between 35 and 40 cycles by RT-PCR)
HNF-3 beta gene expression ([1]; 24 hrs): +++ (detectable at less than 35 cycles by RT-PCR with SE less than 0.9)
Insulin gene expression ([1]; 24 hrs): nd (not detectable at >40 cycles by RT-PCR)
Pdx-1 gene expression ([1]; 24 hrs): +++ (detectable at less than 35 cycles by RT-PCR with SE less than 0.9)
sox17 gene expression ([1]; 24 hrs): +++ (detectable at less than 35 cycles by RT-PCR with SE less than 0.9)
Gata1 gene expression ([1]; 48 hrs): nd (not detectable at >40 cycles by RT-PCR)
HNF-3 beta gene expression ([1]; 48 hrs): +++ (detectable at less than 35 cycles by RT-PCR with SE less than 0.9)
Insulin gene expression ([1]; 48 hrs): nd (not detectable at >40 cycles by RT-PCR)
Pdx-1 gene expression ([1]; 48 hrs): nd (not detectable at >40 cycles by RT-PCR)
sox17 gene expression ([1]; 48 hrs): +++ (detectable at less than 35 cycles by RT-PCR with SE less than 0.9)
Gata1 gene expression ([1]; 72 hrs): nd (not detectable at >40 cycles by RT-PCR)
HNF-3 beta gene expression ([1]; 72 hrs): + (detectable between 35 and 40 cycles by RT-PCR)
Insulin gene expression ([1]; 72 hrs): + (detectable between 35 and 40 cycles by RT-PCR)
Pdx-1 gene expression ([1]; 72 hrs): nd (not detectable at >40 cycles by RT-PCR)
sox17 gene expression ([1]; 72 hrs): +++ (detectable at less than 35 cycles by RT-PCR with SE less than 0.9)
Gata1 gene expression ([1]; 96 hrs): nd (not detectable at >40 cycles by RT-PCR)
HNF-3 beta gene expression ([1]; 96 hrs): + (detectable between 35 and 40 cycles by RT-PCR)
Insulin gene expression ([1]; 96 hrs): + (detectable between 35 and 40 cycles by RT-PCR)
Pdx-1 gene expression ([1]; 96 hrs): nd (not detectable at >40 cycles by RT-PCR)
sox17 gene expression ([1]; 96 hrs): +++ (detectable at less than 35 cycles by RT-PCR with SE less than 0.9)
Gata1 gene expression ([1]; 120 hrs): nd (not detectable at >40 cycles by RT-PCR)
HNF-3 beta gene expression ([1]; 120 hrs): +++ (detectable at less than 35 cycles by RT-PCR with SE less than 0.9)
Insulin gene expression ([1]; 120 hrs): nd (not detectable at >40 cycles by RT-PCR)
Pdx-1 gene expression ([1]; 120 hrs): +++ (detectable at less than 35 cycles by RT-PCR with SE less than 0.9)
sox17 gene expression ([1]; 120 hrs): +++ (detectable at less than 35 cycles by RT-PCR with SE less than 0.9)
Gata1 gene expression ([1]; 144 hrs): nd (not detectable at >40 cycles by RT-PCR)
HNF-3 beta gene expression ([1]; 144 hrs): +++ (detectable at less than 35 cycles by RT-PCR with SE less than 0.9)
Insulin gene expression ([1]; 144 hrs): nd (not detectable at >40 cycles by RT-PCR)
Pdx-1 gene expression ([1]; 144 hrs): nd (not detectable at >40 cycles by RT-PCR)
sox17 gene expression ([1]; 144 hrs): +++ (detectable at less than 35 cycles by RT-PCR with SE less than 0.9)
Gata-1 RT-PCR detection cycle ([1]; 1.25 μM, following the first addition): 37 cycles
Insulin RT-PCR detection cycle ([1]; 1.25 μM, following the media change): 36 cycles
HNF-3 beta RT-PCR detection cycle ([1]; 1.25 μM, initial treatment): 32 cycles
Pdx-1 RT-PCR detection cycle ([1]; 1.25 μM, initial treatment (37 before treatment)): 32 cycles
HNF-3 beta RT-PCR detection cycle ([1]; 1.25 μM, second treatment): 32 cycles
Pdx-1 RT-PCR detection cycle ([1]; 1.25 μM, second treatment): 34 cycles
HNF-3 beta gene expression ([2]; 24 hrs): +++ (detectable at less than 35 cycles by RT-PCR with SE less than 0.9)
Insulin gene expression ([2]; 24 hrs): nd (not detectable at >40 cycles by RT-PCR)
Pdx-1 gene expression ([2]; 24 hrs): ++ (detectable at less than 35 cycles by RT-PCR with SE greater than 0.9)
glucagon gene expression ([2]; 24 hrs): +++ (detectable at less than 35 cycles by RT-PCR with SE less than 0.9)
HNF-3 beta gene expression ([2]; 48 hrs): nd (not detectable at >40 cycles by RT-PCR)
Insulin gene expression ([2]; 48 hrs): nd (not detectable at >40 cycles by RT-PCR)
Pdx-1 gene expression ([2]; 48 hrs): nd (not detectable at >40 cycles by RT-PCR)
glucagon gene expression ([2]; 48 hrs): + (detectable between 35 and 40 cycles by RT-PCR)
HNF-3 beta gene expression ([2]; 72 hrs): nd (not detectable at >40 cycles by RT-PCR)
Insulin gene expression ([2]; 72 hrs): nd (not detectable at >40 cycles by RT-PCR)
Pdx-1 gene expression ([2]; 72 hrs): nd (not detectable at >40 cycles by RT-PCR)
glucagon gene expression ([2]; 72 hrs): + (detectable between 35 and 40 cycles by RT-PCR)
HNF-3 beta gene expression ([2]; 96 hrs): nd (not detectable at >40 cycles by RT-PCR)
Insulin gene expression ([2]; 96 hrs): nd (not detectable at >40 cycles by RT-PCR)
Pdx-1 gene expression ([2]; 96 hrs): nd (not detectable at >40 cycles by RT-PCR)
glucagon gene expression ([2]; 96 hrs): nd (not detectable at >40 cycles by RT-PCR)
HNF-3 beta gene expression ([2]; 120 hrs): + (detectable between 35 and 40 cycles by RT-PCR)
Insulin gene expression ([2]; 120 hrs): nd (not detectable at >40 cycles by RT-PCR)
Pdx-1 gene expression ([2]; 120 hrs): +++ (detectable at less than 35 cycles by RT-PCR with SE less than 0.9)
glucagon gene expression ([2]; 120 hrs): nd (not detectable at >40 cycles by RT-PCR)
HNF-3 beta gene expression ([2]; 144 hrs): nd (not detectable at >40 cycles by RT-PCR)
Insulin gene expression ([2]; 144 hrs): nd (not detectable at >40 cycles by RT-PCR)
Pdx-1 gene expression ([2]; 144 hrs): nd (not detectable at >40 cycles by RT-PCR)
glucagon gene expression ([2]; 144 hrs): + (detectable between 35 and 40 cycles by RT-PCR)
Pdx-1 RT-PCR detection cycle ([2]; 5.0 μM, after the second treatment): 32 cycles
glucagon RT-PCR detection cycle ([2]; 5.0 μM, end of the experiment): 38 cycles
HNF-3 beta RT-PCR detection cycle ([2]; 5.0 μM, following a second treatment): 36 cycles
HNF-3 beta RT-PCR detection cycle [2, 3]: 34 cycles
glucagon RT-PCR detection cycle [2, 3]: 35 cycles

— patent US20080063628A1, “METHODS TO PROMOTE CELL DIFFERENTIATION” (priority 2006, published 2008)
